Measurements as given in patent US12023319B2, “Carboxylic acid aromatic amides” (priority 2016, dated 2024).

Biological target: T1, human Bradykinin B1 receptor (Homo sapiens, UniProt P46663)
T1 construct: host or cells: CHO-K1
T1 sequence (P46663 1-353): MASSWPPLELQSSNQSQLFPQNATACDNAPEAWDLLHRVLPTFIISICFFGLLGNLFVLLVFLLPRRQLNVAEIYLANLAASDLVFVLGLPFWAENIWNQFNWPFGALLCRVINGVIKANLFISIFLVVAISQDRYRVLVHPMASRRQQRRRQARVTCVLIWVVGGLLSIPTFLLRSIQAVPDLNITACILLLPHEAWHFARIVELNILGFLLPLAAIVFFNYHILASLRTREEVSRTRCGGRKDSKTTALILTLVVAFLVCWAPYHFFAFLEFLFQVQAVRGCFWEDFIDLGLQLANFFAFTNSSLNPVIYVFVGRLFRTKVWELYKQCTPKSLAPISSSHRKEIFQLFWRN
Test: Calcium flux assay (FLIPR), CHO-K1 cells expressing human Bradykinin B1 receptor, absence of 0.1% BSA (hB1 free IC50)
Format: cell-based
Conditions: absence of 0.1% BSA in assay buffer
Method in brief: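 Peak FLIPR fluorescence (538 nm) after B1 agonist peptide addition gave IC50s, scaled between DMSO and full block by 20 µM Lys-(Des-Arg-Leu)-Bradykinin. Compounds were preincubated 30 min at 28° C with calcium-dye-loaded CHO-K1 cells expressing human B1, at 8 concentrations in triplicate, 1% DMSO final.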

Structure (SMILES) | IC50 [nM]
CCC(F)(F)c1ccc(-c2c(C)cc(NC(=O)C3(c4ccc(C(F)(F)F)cc4F)CC3)cc2C(=O)O)cn1 [Example 112, 2-[6-(1,1-Difluoropropyl)pyridin-3-yl]-5-[({1-[2-fluoro-4-(trifluoromethyl)phenyl]cyclopropyl}carbonyl)amino]-3-methylbenzoic acid] | 240
CCC(F)(F)c1ccc(-c2c(C)cc(NC(=O)C3(c4ccc(OC(F)(F)F)cc4F)CC3)cc2C(=O)O)cn1 [Example 113, 2-[6-(1,1-Difluoropropyl)pyridin-3-yl]-5-[({1-[2-fluoro-4-(trifluoromethoxy)phenyl]cyclopropyl}carbonyl)amino]-3-methylbenzoic acid] | 120
CCCn1cc(-c2ccc(NC(=O)C3(c4ccc(OC(F)(F)F)cc4F)CC3)cc2C(=O)O)cn1 [Example 115, 5-[({1-[2-Fluoro-4-(trifluoromethoxy)phenyl]cyclopropyl}carbonyl)amino]-2-(1-propyl-1H-pyrazol-4-yl)benzoic acid] | 120
CC(C)Cn1cc(-c2ccc(NC(=O)C3(c4ccc(F)cc4F)CC3)cc2C(=O)O)cn1 [Example 116, 5-({[1-(2,4-Difluorophenyl)cyclopropyl]carbonyl}amino)-2-(1-isobutyl-1H-pyrazol-4-yl)benzoic acid] | 210
CC(C)Cn1cc(-c2ccc(NC(=O)C3(c4ccc(Cl)cc4F)CC3)cc2C(=O)O)cn1 [Example 117, 5-({[1-(4-Chloro-2-fluorophenyl)cyclopropyl]carbonyl}amino)-2-(1-isobutyl-1H-pyrazol-4-yl)benzoic acid] | 56
Cc1ccc(C2(C(=O)Nc3ccc(-c4cnn(CC(C)C)c4)c(C(=O)O)c3)CC2)c(F)c1 [Example 118, 5-({[1-(2-Fluoro-4-methylphenyl)cyclopropyl]carbonyl}amino)-2-(1-isobutyl-1H-pyrazol-4-yl)benzoic acid] | 130
O=C(O)c1cc(NC(=O)C2(c3ccc(OC(F)(F)F)cc3F)CC2)ccc1-c1cnn(CC2CCC2)c1 [Example 120, 2-[1-(Cyclobutylmethyl)-1H-pyrazol-4-yl]-5-[({1-[2-fluoro-4-(trifluoromethoxy)phenyl]cyclopropyl}carbonyl)amino]benzoic acid] | 17
O=C(O)c1cc(NC(=O)C2(c3ccc(C(F)(F)F)cc3F)CC2)ccc1-c1cnn(C2CCCCC2)c1 [Example 122, 2-(1-Cyclohexyl-1H-pyrazol-4-yl)-5-[({1-[2-fluoro-4-(trifluoromethyl)phenyl]cyclopropyl}carbonyl)amino]benzoic acid] | 13
O=C(O)c1cc(NC(=O)C2(c3ccc(OC(F)(F)F)cc3F)CC2)ccc1-c1cnn(C2CCCCC2)c1 [Example 123, 2-(1-Cyclohexyl-1H-pyrazol-4-yl)-5-[({1-[2-fluoro-4-(trifluoromethoxy)phenyl]cyclopropyl}carbonyl)amino]benzoic acid] | 22
O=C(O)c1cc(NC(=O)C2(c3ccc(OC(F)(F)F)cc3F)CC2)ccc1-c1cnn(C2CC2)c1 [Example 125, 2-(1-Cyclopropyl-1H-pyrazol-4-yl)-5-[({1-[2-fluoro-4-(trifluoromethoxy)phenyl]cyclopropyl}carbonyl)amino]benzoic acid] | 170
O=C(O)c1cc(NC(=O)C2(c3ccc(C(F)(F)F)cc3F)CC2)cc(F)c1-c1cnn(CC2CC2)c1 [Example 126, 2-[1-(Cyclopropylmethyl)-1H-pyrazol-4-yl]-3-fluoro-5-[({1-[2-fluoro-4-(trifluoromethyl)phenyl]cyclopropyl}carbonyl)amino]benzoic acid] | 14
O=C(O)c1cc(NC(=O)C2(c3ccc(OC(F)(F)F)cc3F)CC2)cc(F)c1-c1cnn(CC2CC2)c1 [Example 127, 2-[1-(Cyclopropylmethyl)-1H-pyrazol-4-yl]-3-fluoro-5-[({1-[2-fluoro-4-(trifluoromethoxy)phenyl]cyclopropyl}carbonyl)amino]benzoic acid] | 11
Cc1ccc(-c2c(F)cc(NC(=O)C3(c4ccc(C(F)(F)F)cc4F)CC3)cc2C(=O)O)cn1 [Example 128, 3-Fluoro-5-[({1-[2-fluoro-4-(trifluoromethyl)phenyl]cyclopropyl}carbonyl)amino]-2-(6-methylpyridin-3-yl)benzoic acid] | 37
O=C(O)c1cc(NC(=O)C2(c3ccc(C(F)(F)F)cc3F)CC2)ccc1-n1cc(C2CCC2)cn1 [Example 129, 2-(4-Cyclobutyl-1H-pyrazol-1-yl)-5-[({1-[2-fluoro-4-(trifluoromethyl)phenyl]cyclopropyl}carbonyl)amino]benzoic acid] | 620
O=C(O)c1cc(NC(=O)C2(c3ccc(OC(F)(F)F)cc3F)CC2)ccc1-n1cc(C2CCC2)cn1 [Example 130, 2-(4-Cyclobutyl-1H-pyrazol-1-yl)-5-[({1-[2-fluoro-4-(trifluoromethoxy)phenyl]cyclopropyl}carbonyl)amino]benzoic acid] | 590
Cn1cc(-c2c(F)cc(NC(=O)C3(c4ccc(OC(F)(F)F)cc4F)CC3)cc2C(=O)O)cn1 [Example 137, 3-Fluoro-5-[({1-[2-fluoro-4-(trifluoromethoxy)phenyl]cyclopropyl}carbonyl)amino]-2-(1-methyl-1H-pyrazol-4-yl)benzoic acid] | 70
CCn1cc(-c2c(F)cc(NC(=O)C3(c4ccc(C(F)(F)F)cc4F)CC3)cc2C(=O)O)cn1 [Example 138, 2-(1-Ethyl-1H-pyrazol-4-yl)-3-fluoro-5-[({1-[2-fluoro-4-(trifluoromethyl)phenyl]cyclopropyl}carbonyl)amino]benzoic acid] | 18
CCn1cc(-c2c(F)cc(NC(=O)C3(c4ccc(OC(F)(F)F)cc4F)CC3)cc2C(=O)O)cn1 [Example 139, 2-(1-Ethyl-1H-pyrazol-4-yl)-3-fluoro-5-[({1-[2-fluoro-4-(trifluoromethoxy)phenyl]cyclopropyl}carbonyl)amino]benzoic acid] | 13
CC(C)n1cc(-c2c(F)cc(NC(=O)C3(c4ccc(Cl)cc4F)CC3)cc2C(=O)O)cn1 [Example 140, 5-({[1-(4-Chloro-2-fluorophenyl)cyclopropyl]carbonyl}amino)-3-fluoro-2-(1-isopropyl-1H-pyrazol-4-yl)benzoic acid] | 21

Now from value to compound:

IC50 [nM] | Structure (SMILES)
85 | CCCn1cc(-c2ccc(NC(=O)C3(c4ccc(C(F)(F)F)cc4F)CC3)cc2C(=O)O)cn1 [Example 114, 5-[({1-[2-Fluoro-4-(trifluoromethyl)phenyl]cyclopropyl}carbonyl)amino]-2-(1-propyl-1H-pyrazol-4-yl)benzoic acid]
25 | O=C(O)c1cc(NC(=O)C2(c3ccc(C(F)(F)F)cc3F)CC2)ccc1-c1cnn(CC2CCC2)c1 [Example 119, 2-[1-(Cyclobutylmethyl)-1H-pyrazol-4-yl]-5-[({1-[2-fluoro-4-(trifluoromethyl)phenyl]cyclopropyl}carbonyl)amino]benzoic acid]
18 | O=C(O)c1cc(NC(=O)C2(c3ccc(C(F)(F)F)cc3F)CC2)ccc1-c1cnn(C2CCCC2)c1 [Example 121, 2-(1-Cyclopentyl-1H-pyrazol-4-yl)-5-[({1-[2-fluoro-4-(trifluoromethyl)phenyl]cyclopropyl}carbonyl)amino]benzoic acid]
200 | O=C(O)c1cc(NC(=O)C2(c3ccc(C(F)(F)F)cc3F)CC2)ccc1-c1cnn(C2CC2)c1 [Example 124, 2-(1-Cyclopropyl-1H-pyrazol-4-yl)-5-[({1-[2-fluoro-4-(trifluoromethyl)phenyl]cyclopropyl}carbonyl)amino]benzoic acid]
50 | CC[C@H](C)n1cc(-c2ccc(NC(=O)C3(c4ccc(C(F)(F)F)cc4F)CC3)cc2C(=O)O)cn1 [Example 131, 2-{1-[(2S)-Butan-2-yl]-1H-pyrazol-4-yl}-5-[({1-[2-fluoro-4-(trifluoromethyl)phenyl]cyclopropyl}carbonyl)amino]benzoic acid]
56 | CC[C@H](C)n1cc(-c2ccc(NC(=O)C3(c4ccc(OC(F)(F)F)cc4F)CC3)cc2C(=O)O)cn1 [Example 132, 2-{1-[(2S)-Butan-2-yl]-1H-pyrazol-4-yl}-5-[({1-[2-fluoro-4-(trifluoromethoxy)phenyl]cyclopropyl}carbonyl)amino]benzoic acid]
59 | CC[C@@H](C)n1cc(-c2ccc(NC(=O)C3(c4ccc(C(F)(F)F)cc4F)CC3)cc2C(=O)O)cn1 [Example 133, 2-{1-[(2R)-Butan-2-yl]-1H-pyrazol-4-yl}-5-[({1-[2-fluoro-4-(trifluoromethyl)phenyl]cyclopropyl}carbonyl)amino]benzoic acid]
44 | CC[C@@H](C)n1cc(-c2ccc(NC(=O)C3(c4ccc(OC(F)(F)F)cc4F)CC3)cc2C(=O)O)cn1 [Example 134, 2-{1-[(2R)-Butan-2-yl]-1H-pyrazol-4-yl}-5-[({1-[2-fluoro-4-(trifluoromethoxy)phenyl]cyclopropyl}carbonyl)amino]benzoic acid]
33 | CC[C@H](C)n1cc(-c2c(F)cc(NC(=O)C3(c4ccc(C(F)(F)F)cc4F)CC3)cc2C(=O)O)cn1 [Example 135, 2-{1-[(2S)-Butan-2-yl]-1H-pyrazol-4-yl}-3-fluoro-5-[({1-[2-fluoro-4-(trifluoromethyl)phenyl]cyclopropyl}carbonyl)amino]benzoic acid]
28 | CC[C@@H](C)n1cc(-c2c(F)cc(NC(=O)C3(c4ccc(C(F)(F)F)cc4F)CC3)cc2C(=O)O)cn1 [Example 136, 2-{1-[(2R)-Butan-2-yl]-1H-pyrazol-4-yl}-3-fluoro-5-[({1-[2-fluoro-4-(trifluoromethyl)phenyl]cyclopropyl}carbonyl)amino]benzoic acid]
